The values below are quoted from earlier work in US20050004194A1, “Use of organic compounds” (priority 2003, published 2005).

For data set [1] the following is noted: elderly heart failure patients, losartan versus captopril 50 mg t.i.d.
The conditions of data set [2]: SAVE trial, patients after MI, captopril versus placebo.

Turning to `CCCCc1nc(Cl)c(CO)n1Cc1ccc(-c2ccccc2-c2nn[nH]n2)cc1` [losartan], the “primary objective: tolerability and increase in serum creatinine” value in data set [1] was “no significant differences”. Also, in data set [1] (722 patients, based on only 49 deaths), the all-cause mortality entry is listed as “statistically significant reduction”.

For `C[C@H](CS)C(=O)N1CCC[C@H]1C(=O)O` [captopril], the left ventricular remodeling result in data set [2] was “improvement”.
